Patent US20240101546A1, “HETEROARYL-ACETYLENES, PHARMACEUTICAL COMPOSITIONS THEREOF, AND THEIR THERAPEUTIC APPLICATIONS” (Eubulus Biotherapeutics Inc., priority 2020, published 2024)

What follows are compounds tested on hepatocellular carcinoma cell line Hub-7 (assay: Cell proliferation assay, Hub-7 (CELL-TITER GLO)). Conditions: Hub-7 cells, 24 h incubation, cell viability by CELL-TITER GLO, top concentration 10 μM; read-out: EC50, Inhibition of Hub-7 Cell Proliferation.
Format: cell-based
Protocol: The activity of a compound was determined in a cell proliferation assay using the hepatocellular carcinoma cell line Hub-7. Cells (4,000 cells per well) were seeded in a 96-well tissue culture plate. After incubated overnight, the compound was added at predetermined concentrations, starting with 10 μM and followed by 3-fold serial dilution. After the cells were incubated for 24 h, cell viability was determined using a CELL-TITER GLO® assay. The CELL-TITER GLO® reagent (50 μL) was added to each well and the luminescence was measured by a multimode microplate reader after a brief period of shaking. EC50 values were determined for the compound. The results are summarized in Table 1, wherein A represents a value no greater than 200 nM, B represents a value greater than 200 nM but no greater than 1 μM, C represents a value greater than 1 μM but no greater than 5 μM, and D represents a value greater than 5 μM.

Question: Which EC50 does the source give for C#Cc1nc(C(=O)NCc2ccc(-c3ccn(C)n3)cc2)cs1 [Compound C54, 2-Ethynyl-N-(4-(1-methyl-1H-pyrazol-3-yl)benzyl)thiazole-4-carboxamide] here?
Answer: Its EC50 is 200 to 1000 nM.

Question: How did the EC50 turn out when C#Cc1nc(C(=O)NCc2ccc(-c3cscn3)cc2)cs1 [Compound C55, 2-Ethynyl-N-(4-(thiazol-4-yl)benzyl)thiazole-4-carboxamide] was run?
Answer: Its EC50 is 200 to 1000 nM.

Question: With C#Cc1nc(C(=O)NCc2cccc(Cl)c2)c(-c2ccccc2)s1 [Compound C56, N-(3-Chlorobenzyl)-2-ethynyl-5-phenylthiazole-4-carboxamide] as the compound, how does the EC50 read?
Answer: The EC50 was 1000 to 5000 nM.

Question: With C#Cc1nc(C(=O)NCCc2ccc(-c3cncs3)cc2)cs1 [Compound C57, 2-Ethynyl-N-(4-(thiazol-5-yl)phenethyl)thiazole-4-carboxamide] as the compound, how does the EC50 read?
Answer: The EC50 was 200 to 1000 nM.

Question: For C#Cc1nc(C(=O)NCc2cccc(-c3cn[nH]c3)c2)cs1 [Compound C58, N-(3-(1H-Pyrazol-4-yl)benzyl)-2-ethynylthiazole-4-carboxamide], which EC50 is on record?
Answer: The EC50 was 1000 to 5000 nM.

Question: Which EC50 does the source give for C#Cc1nc(C(=O)NCc2cccc(-c3cnn(C)c3)c2)cs1 [Compound C59, 2-Ethynyl-N-(3-(1-methyl-1H-pyrazol-4-yl)benzyl)thiazole-4-carboxamide] here?
Answer: Its EC50 is 1000 to 5000 nM.

Question: Which EC50 does the source give for C#Cc1nc(C(=O)NCc2cccc(-c3cc[nH]n3)c2)cs1 [Compound C60, N-(3-(1H-Pyrazol-3-yl)benzyl)-2-ethynylthiazole-4-carboxamide] here?
Answer: Its EC50 is 200 to 1000 nM.

Question: Which EC50 does the source give for C#Cc1nc(C(=O)NCc2ccc(-c3cncs3)cc2)cs1 [Compound C61, 2-Ethynyl-N-(4-(thiazol-5-yl)benzyl)thiazole-4-carboxamide] here?
Answer: Its EC50 is 200 to 1000 nM.

Question: Which EC50 does the source give for C#Cc1nc(C(=O)NC2Cc3ccccc3C2)cs1 [Compound C62, N-(2,3-Dihydro-1H-inden-2-yl)-2-ethynylthiazole-4-carboxamide] here?
Answer: The EC50 was 200 to 1000 nM.

Question: How did the EC50 turn out when C#Cc1nc(C(=O)NCc2ccccc2C#N)cs1 [Compound C63, N-(2-Cyanobenzyl)-2-ethynylthiazole-4-carboxamide] was run?
Answer: The EC50 was at most 200 nM.

Question: For C#Cc1nc(C(=O)NCc2ccc3ccccc3c2)cs1 [Compound C64, 2-Ethynyl-N-(naphthalen-2-ylmethyl)thiazole-4-carboxamide], which EC50 is on record?
Answer: The EC50 was at most 200 nM.

Question: C#Cc1nc(C(=O)NCc2cccc(-c3cccnc3)c2)cs1 [Compound C65, 2-Ethynyl-N-(3-(pyridin-3-yl)benzyl)thiazole-4-carboxamide] was tested. Which EC50 did it give?
Answer: Its EC50 is 1000 to 5000 nM.

Question: Which EC50 does the source give for C#Cc1nc(C(=O)NCc2ccc3ncsc3c2)cs1 [Compound C66, N-(Benzo[d]thiazol-6-ylmethyl)-2-ethynylthiazole-4-carboxamide] here?
Answer: Its EC50 is 1000 to 5000 nM.

Question: How did the EC50 turn out when C#Cc1nc(C(=O)N[C@H](C)c2cccc(Cl)c2)cs1 [Compound C67, (R)—N-(1-(3-Chlorophenyl)ethyl)-2-ethynylthiazole-4-carboxamide] was run?
Answer: Its EC50 is 1000 to 5000 nM.

Question: For C#Cc1nc(C(=O)NC2(c3cccc(Cl)c3)CC2)cs1 [Compound C68, N-(1-(3-Chlorophenyl)cyclopropyl)-2-ethynylthiazole-4-carboxamide], which EC50 is on record?
Answer: Its EC50 is 200 to 1000 nM.

Question: How did the EC50 turn out when C#Cc1nc(C(=O)N[C@@H](C)c2cccc(Cl)c2)cs1 [Compound C69, (S)—N-(1-(3-Chlorophenyl)ethyl)-2-ethynylthiazole-4-carboxamide] was run?
Answer: Its EC50 is at most 200 nM.

Question: How did the EC50 turn out when C#Cc1nc(C(=O)NCc2ccccc2CO)cs1 [Compound C70, 2-Ethynyl-N-(2-(hydroxymethyl)benzyl)thiazole-4-carboxamide] was run?
Answer: The EC50 was 1000 to 5000 nM.

Question: For C#Cc1nc(C(=O)N[C@H]2CCc3ccccc32)cs1 [Compound C71, (S)—N-(2,3-Dihydro-1H-inden-1-yl)-2-ethynylthiazole-4-carboxamide], which EC50 is on record?
Answer: The EC50 was 200 to 1000 nM.

Question: For C#Cc1nc(C(=O)N[C@@H]2CCc3ccccc32)cs1 [Compound C72, (R)—N-(2,3-Dihydro-1H-inden-1-yl)-2-ethynylthiazole-4-carboxamide], which EC50 is on record?
Answer: The EC50 was 200 to 1000 nM.

Question: C#Cc1nc(C(=O)NCc2ccc(CCC(=O)OC)cc2)cs1 [Compound C73, Methyl 3-(4-((2-ethynylthiazole-4-carboxamido)methyl)phenyl)propanoate] was tested. Which EC50 did it give?
Answer: Its EC50 is over 5000 nM.

Question: For C#Cc1nc(C(=O)NCc2ccccc2C(=O)OC)cs1 [Compound C74, Methyl 2-((2-ethynylthiazole-4-carboxamido)methyl)benzoate], which EC50 is on record?
Answer: The EC50 was 200 to 1000 nM.

Question: For C#Cc1nc(C(=O)NCCc2ccc(-c3cnn(C)c3)cc2)cs1 [Compound C75, 2-Ethynyl-N-(4-(1-methyl-1H-pyrazol-4-yl)phenethyl)thiazole-4-carboxamide], which EC50 is on record?
Answer: The EC50 was 200 to 1000 nM.

Question: Which EC50 does the source give for C#Cc1nc(C(=O)NCCc2ccc(-c3cn[nH]c3)cc2)cs1 [Compound C76, N-(4-(1H-Pyrazol-4-yl)phenethyl)-2-ethynylthiazole-4-carboxamide] here?
Answer: The EC50 was 1000 to 5000 nM.

Question: Which EC50 does the source give for C#Cc1nc(NC(=O)Cc2ccccc2)cs1 [Compound C77, N-(2-Ethynylthiazol-4-yl)-2-phenylacetamide] here?
Answer: The EC50 was 200 to 1000 nM.

Question: For C#Cc1nc(C(=O)NC2CCN(c3ccccc3)CC2)cs1 [Compound C78, 2-Ethynyl-N-(1-phenylpiperidin-4-yl)thiazole-4-carboxamide], which EC50 is on record?
Answer: The EC50 was 200 to 1000 nM.

Question: For C#Cc1nc(C(=O)NCCc2ccc(-c3cccnc3)cc2)cs1 [Compound C79, 2-Ethynyl-N-(4-(pyridin-3-yl)phenethyl)thiazole-4-carboxamide], which EC50 is on record?
Answer: Its EC50 is 200 to 1000 nM.

Question: With C#Cc1nc(C(=O)NCCc2ccc(Br)cc2)cs1 [Compound C80, N-(4-Bromophenethyl)-2-ethynylthiazole-4-carboxamide] as the compound, how does the EC50 read?
Answer: The EC50 was 200 to 1000 nM.

Question: For C#Cc1nc(C(=O)NCCc2cccc(NS(C)(=O)=O)c2)cs1 [Compound C81, 2-Ethynyl-N-(3-(methylsulfonamido)phenethyl)thiazole-4-carboxamide], which EC50 is on record?
Answer: Its EC50 is 1000 to 5000 nM.

Question: With C#Cc1nc(C(=O)NCCc2cccc(NC(C)=O)c2)cs1 [Compound C82, N-(3-Acetamidophenethyl)-2-ethynylthiazole-4-carboxamide] as the compound, how does the EC50 read?
Answer: The EC50 was 1000 to 5000 nM.

Question: C#Cc1nc(C(=O)NCc2ccc(-c3cnn(C)c3)cc2)cs1 [Compound C83, 2-Ethynyl-N-(4-(1-methyl-1H-pyrazol-4-yl)benzyl)thiazole-4-carboxamide] was tested. Which EC50 did it give?
Answer: Its EC50 is 1000 to 5000 nM.

Question: With C#Cc1nc(C(=O)NCCc2ccc(C(=O)OC)cc2)cs1 [Compound C84, Methyl 4-(2-(2-ethynylthiazole-4-carboxamido)ethyl)benzoate] as the compound, how does the EC50 read?
Answer: Its EC50 is 1000 to 5000 nM.

Question: With C#Cc1nc(C(=O)NCCc2cccc(N)c2)cs1 [Compound C85, N-(3-Aminophenethyl)-2-ethynylthiazole-4-carboxamide] as the compound, how does the EC50 read?
Answer: The EC50 was 1000 to 5000 nM.

Question: Which EC50 does the source give for C#Cc1nc(C(=O)NCc2ccc3c(c2)OCCO3)cs1 [Compound C86, N-((2,3-Dihydrobenzo[b][1,4]dioxin-6-yl)methyl)-2-ethynylthiazole-4-carboxamide] here?
Answer: Its EC50 is 1000 to 5000 nM.

Question: For C#Cc1nc(C(=O)NCCc2cccc([N+](=O)[O-])c2)cs1 [Compound C87, 2-Ethynyl-N-(3-nitrophenethyl)thiazole-4-carboxamide], which EC50 is on record?
Answer: The EC50 was 200 to 1000 nM.

Question: Which EC50 does the source give for C#Cc1nc(C(=O)NCCc2ccc(NC(C)=O)cc2)cs1 [Compound C88, N-(4-Acetamidophenethyl)-2-ethynylthiazole-4-carboxamide] here?
Answer: Its EC50 is 1000 to 5000 nM.

Question: Which EC50 does the source give for C#Cc1nc(C(=O)NCc2ccc(NC(C)=O)cc2)cs1 [Compound C89, N-(4-Acetamidobenzyl)-2-ethynylthiazole-4-carboxamide] here?
Answer: The EC50 was over 5000 nM.

Question: How did the EC50 turn out when N#Cc1nc(C(=O)NCc2ccccc2)cs1 [Compound C90, N-Benzyl-2-cyanothiazole-4-carboxamide] was run?
Answer: Its EC50 is over 5000 nM.

Question: Which EC50 does the source give for C#Cc1nc(C(=O)NCc2ccc(-c3cc[nH]n3)cc2)cs1 [Compound C91, N-(4-(1H-Pyrazol-3-yl)benzyl)-2-ethynylthiazole-4-carboxamide] here?
Answer: The EC50 was 1000 to 5000 nM.

Question: With C#Cc1nc(C(=O)NCc2ccc(-c3cn[nH]c3)cc2)cs1 [Compound C92, N-(4-(1H-Pyrazol-4-yl)benzyl)-2-ethynylthiazole-4-carboxamide] as the compound, how does the EC50 read?
Answer: Its EC50 is 1000 to 5000 nM.

Question: For C#Cc1nc(C(=O)NCc2ccc(-c3cccnc3)cc2)cs1 [Compound C93, 2-Ethynyl-N-(4-(pyridin-3-yl)benzyl)thiazole-4-carboxamide], which EC50 is on record?
Answer: Its EC50 is 200 to 1000 nM.

Question: For C#Cc1nc(C(=O)NCc2cccc(NC(C)=O)c2)cs1 [Compound C94, N-(3-Acetamidobenzyl)-2-ethynylthiazole-4-carboxamide], which EC50 is on record?
Answer: Its EC50 is 1000 to 5000 nM.

Question: C#Cc1nc(C(=O)NCc2cccc(N)c2)cs1 [Compound C95, N-(3-Aminobenzyl)-2-ethynylthiazole-4-carboxamide] was tested. Which EC50 did it give?
Answer: The EC50 was 1000 to 5000 nM.

Question: C#Cc1nc(C(=O)NCc2ccc3ncccc3c2)cs1 [Compound C96, 2-Ethynyl-N-(quinolin-6-ylmethyl)thiazole-4-carboxamide] was tested. Which EC50 did it give?
Answer: Its EC50 is 1000 to 5000 nM.

Question: For C#Cc1nc(C(=O)NCCc2cccc(C(=O)OC)c2)cs1 [Compound C97, Methyl 3-(2-(2-ethynylthiazole-4-carboxamido)ethyl)benzoate], which EC50 is on record?
Answer: The EC50 was 200 to 1000 nM.

Question: C#Cc1nc(C(=O)NCc2ccccc2)cn1C [Compound C98, N-Benzyl-2-ethynyl-1-methyl-1H-imidazole-4-carboxamide] was tested. Which EC50 did it give?
Answer: Its EC50 is over 5000 nM.

Question: Which EC50 does the source give for C#Cc1nc(C(=O)NCCc2ccc(NS(C)(=O)=O)cc2)cs1 [Compound C99, 2-Ethynyl-N-(4-(methylsulfonamido)phenethyl)thiazole-4-carboxamide] here?
Answer: The EC50 was 1000 to 5000 nM.

Question: Which EC50 does the source give for C#Cc1nc(C(=O)N(C)CCc2ccc([N+](=O)[O-])cc2)cs1 [Compound C100, 2-Ethynyl-N-methyl-N-(4-nitrophenethyl)thiazole-4-carboxamide] here?
Answer: Its EC50 is 200 to 1000 nM.

Question: Which EC50 does the source give for C#Cc1nc(C(=O)NCCc2ccc(S(C)(=O)=O)cc2)cs1 [Compound C101, 2-Ethynyl-N-(4-(methylsulfonyl)phenethyl)thiazole-4-carboxamide] here?
Answer: The EC50 was over 5000 nM.

Question: Which EC50 does the source give for C#Cc1nc(C(=O)NCCc2ccc(C#N)cc2)cs1 [Compound C102, N-(4-Cyanophenethyl)-2-ethynylthiazole-4-carboxamide] here?
Answer: Its EC50 is 200 to 1000 nM.
